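Compound exposure: 48 hours, 5 concentrations, 96-well plates. GI50: concentration for 50% inhibition of growth. TGI denotes the concentration required for complete inhibition of growth.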
Legend:
Assay in all cases: DTP human tumour cell line panel, 48 h
NCI-H226 lung = system: NCI-H226 lung
HCT-15 colon = system: HCT-15 colon
ACHN renal = system: ACHN renal
MALME-3M melanoma = system: MALME-3M melanoma
LOX IMVI melanoma = system: LOX IMVI melanoma
RPMI-8226 leukemia = system: RPMI-8226 leukemia
NCI-H522 lung = system: NCI-H522 lung
SK-MEL-5 melanoma = system: SK-MEL-5 melanoma
OVCAR-8 ovarian = system: OVCAR-8 ovarian
MDA-MB-435 = system: MDA-MB-435

SMILES | TGI (NCI-H226 lung) [µM] | TGI (HCT-15 colon) [µM] | TGI (ACHN renal) [µM] | TGI (MALME-3M melanoma) [µM] | TGI (LOX IMVI melanoma) [µM] | TGI (RPMI-8226 leukemia) [µM] | TGI (NCI-H522 lung) [µM] | TGI (SK-MEL-5 melanoma) [µM] | TGI (OVCAR-8 ovarian) [µM] | GI50 (ACHN renal) [µM] | GI50 (MDA-MB-435) [µM] | TGI (MDA-MB-435) [µM] | GI50 (SK-MEL-5 melanoma) [µM] | GI50 (HCT-15 colon) [µM] | GI50 (MALME-3M melanoma) [µM] | GI50 (LOX IMVI melanoma) [µM] | GI50 (RPMI-8226 leukemia) [µM] | GI50 (NCI-H522 lung) [µM] | GI50 (OVCAR-8 ovarian) [µM] | GI50 (NCI-H226 lung) [µM]
Cc1ccc(NC(=O)C2C(=O)N(c3ccc(C)c(C)c3)C(=O)/C2=N\NC(N)=S)cc1C (stereo not drawn) | > 100 | > 100 | > 100 | > 100 | > 100 | > 100 | > 100 | – | – | – | – | – | – | – | – | – | – | – | – | –
BrC1=CC=C2NCCCCCCN=C3C=CC(Br)=CC=C3NCCCCCCN=C2C=C1 | > 25.5 | > 25.5 | > 25.5 | > 25.5 | > 25.5 | > 25.5 | > 25.5 | > 25.5 | > 25.5 | – | – | – | – | – | – | – | – | – | – | –
c1cc(-c2cn[nH]c2)cc(-c2cn[nH]c2)c1 | – | 96.4 | – | – | > 100 | > 100 | > 100 | > 100 | > 100 | – | – | – | – | – | – | – | – | – | – | –
Cc1[nH]nc2c1C(=O)C=C(N(CCO)c1ccccc1)C2=O | > 100 | > 100 | – | > 100 | > 100 | > 100 | > 100 | > 100 | > 100 | – | – | – | – | – | – | – | – | – | – | –
Cc1nc(Nc2ccccc2)sc1C(=O)NNc1ccc([N+](=O)[O-])cc1[N+](=O)[O-] | > 100 | > 100 | > 100 | > 100 | 87.9 | – | 49.3 | 68.5 | > 100 | – | – | – | – | – | – | – | – | – | – | –
c1ccc2cc(Cn3c[n+](Cc4ccc5ccccc5c4)c4ccccc43)ccc2c1 | – | – | 4 | – | – | – | – | 1.86 | – | 1.94 | 1.37 | 2.74 | 0.556 | – | – | – | – | – | – | –
O=[N+]([O-])[O-].O=[N+]([O-])[O-].[Au].[Au].c1ccc([P-]c2ccccc2)cc1.c1ccc([P-]c2ccccc2)cc1 | – | > 100 | 33.9 | 47 | > 100 | > 100 | 46.3 | 88.8 | > 100 | 17 | – | – | 34.1 | 27 | 19.8 | 35.3 | 14.3 | 3.64 | 35.3 | –
Cn1c2ccccc2c(=O)c2c([N+](=O)[O-])ccc(NCCN)c21 | 27.2 | 26.7 | 19.7 | 28.9 | – | – | 20.5 | 27.2 | 24.5 | – | – | – | – | – | – | – | – | – | – | –
O=C(O)/C(=C\c1ccccc1Cl)S(=O)(=O)c1ccccc1 | – | > 100 | > 100 | > 100 | > 100 | > 100 | > 100 | > 100 | > 100 | – | – | – | – | – | – | – | – | – | – | –
COc1cc2c([C@@H](OC(=O)c3ccccc3)c3ccc4c(c3)OCO4)nccc2c(OC)c1OC | 94.5 | > 100 | – | > 100 | > 100 | 51 | > 100 | 69.8 | > 100 | – | – | – | – | – | – | – | – | – | – | –
COC(=O)NC(=O)c1cn(CCCOC(=O)CCCCCCCCC(=O)OCCCn2cc(C(=O)NC(=O)OC)c(=O)[nH]c2=O)c(=O)[nH]c1=O | > 100 | > 100 | > 100 | > 100 | > 100 | > 100 | – | > 100 | > 100 | – | – | – | – | – | – | – | – | – | – | –
CCCCCCCCCCCC(=O)c1c(O)cccc1O | 34.7 | 33.4 | 33.8 | 29.5 | 33.7 | 68.5 | 33.2 | 26.7 | 33.5 | – | – | – | – | – | – | – | – | – | – | –
Cc1nc2cc(Nc3nc(Nc4ccc(F)cc4)nc(N4CCN(C)CC4)n3)ccc2n1Cc1ccccc1 | – | 3.48 | 3.83 | – | 3.41 | 4.28 | 3.21 | 2.89 | 5.49 | 1.87 | 1.87 | 3.56 | 1.54 | 1.55 | – | 1.79 | 1.75 | 1.6 | 2.02 | –
Nc1ccc2ccc(NS(=O)(=O)N3CCCCC3)cc2c1 | > 100 | > 100 | > 100 | > 100 | > 100 | > 49.6 | 0.76 | 4.52 | > 100 | 3.64 | – | – | 0.285 | 0.44 | 0.489 | 1.03 | 0.507 | 0.205 | 1.63 | 2.56
CC1CCP(=O)(c2ccccc2)CC1 (stereo not drawn) | – | > 100 | > 100 | > 100 | > 100 | > 100 | – | > 100 | > 100 | – | – | – | – | – | – | – | – | – | – | –
CC1(C)CC(=O)C(=[N+]=[N-])C(=O)C1 | > 100 | > 100 | > 100 | > 100 | > 100 | > 100 | > 100 | – | – | – | – | – | – | – | – | – | – | – | – | –

SMILES | TGI (NCI-H226 lung) [µM] | TGI (HCT-15 colon) [µM] | TGI (ACHN renal) [µM] | TGI (MALME-3M melanoma) [µM] | TGI (LOX IMVI melanoma) [µM] | TGI (RPMI-8226 leukemia) [µM] | TGI (NCI-H522 lung) [µM] | TGI (SK-MEL-5 melanoma) [µM] | TGI (OVCAR-8 ovarian) [µM] | GI50 (ACHN renal) [µM] | GI50 (MDA-MB-435) [µM] | TGI (MDA-MB-435) [µM] | GI50 (SK-MEL-5 melanoma) [µM] | GI50 (HCT-15 colon) [µM] | GI50 (MALME-3M melanoma) [µM] | GI50 (LOX IMVI melanoma) [µM] | GI50 (RPMI-8226 leukemia) [µM] | GI50 (NCI-H522 lung) [µM] | GI50 (OVCAR-8 ovarian) [µM] | GI50 (NCI-H226 lung) [µM]
Cc1cccc(C)c1NC(=O)CCC(=O)NC(N)=S | > 100 | > 100 | > 100 | > 100 | > 100 | > 100 | > 100 | > 100 | > 100 | – | – | – | – | – | – | – | – | – | – | –
CC(O)C(O)C(O)C(/C=N\Nc1ccccc1)=N/Nc1ccccc1 (stereo not drawn) | – | 27 | 25.3 | 43.5 | 18.1 | 57.1 | 20.9 | 28.5 | 38.1 | – | – | 26.7 | – | – | – | – | – | – | – | –
COC(=O)C1N=CSCC1(C)O (stereo not drawn) | > 100 | > 100 | > 100 | > 100 | > 100 | > 100 | – | > 100 | > 100 | – | – | – | – | – | – | – | – | – | – | –
CC(=O)[C-](C(C)=O)c1ccccc1.CC(=O)[C-](C(C)=O)c1ccccc1.CC[O-].CC[O-].[Ti+4] | > 100 | > 100 | > 100 | > 100 | > 100 | > 100 | > 100 | > 100 | > 100 | > 100 | – | – | > 100 | > 100 | > 100 | > 100 | > 100 | > 100 | > 100 | > 100
c1cc[c]([Sn]([S]c2cccc3cccnc23)([S]c2cccc3cccnc23)[c]2ccccc2)cc1 | 1.06 | 0.446 | 0.496 | 0.547 | 0.402 | 0.465 | – | 0.483 | 0.895 | 0.209 | – | – | 0.204 | 0.153 | 0.168 | 0.186 | 0.158 | – | 0.25 | 0.175
COc1ccc(C(=O)C(C(=O)C(=O)Nc2nccs2)c2ccc(OC)cc2)cc1 (stereo not drawn) | – | > 100 | > 100 | > 100 | > 100 | > 100 | > 100 | > 100 | > 100 | – | – | – | – | – | – | – | – | – | – | –
COc1cc(Cl)c2c3c(c(C(=O)c4ccccc4)oc13)CCC2 | – | > 100 | > 100 | – | > 100 | > 100 | – | > 100 | > 100 | – | – | – | – | – | – | – | – | – | – | –
CCc1cccc(C(C)CC)c1NC(=O)C(=O)C(CC(=O)Nc1ccc(Cl)c(Cl)c1)C(=O)OC (stereo not drawn) | > 100 | > 100 | 69.8 | > 100 | – | > 100 | > 100 | – | > 100 | – | – | – | – | – | – | – | – | – | – | –
Cc1cc(N(CCC#N)CCC#N)ccc1N=Nc1cccc(Cl)c1 | > 100 | – | > 100 | > 100 | – | > 100 | > 100 | > 100 | > 100 | – | – | – | – | – | – | – | – | – | – | –
O=C(NNS(=O)(=O)c1ccc(F)cc1)c1cccnc1Nc1ccc(Cl)cc1Cl | 96.9 | 83.5 | > 100 | > 100 | > 100 | – | – | 86 | > 100 | 46.1 | 84.4 | > 100 | 25.3 | 26.8 | 34.7 | 32.1 | – | – | 26.9 | 29.6
CCCCN(CCCC)C(=O)C(=O)C(C)C(=O)CC (stereo not drawn) | > 100 | > 100 | > 100 | > 100 | > 100 | > 100 | > 100 | – | > 100 | – | – | – | – | – | – | – | – | – | – | –
N[C@@H]1CCCC[C@@H]1N.O=C([O-])CN(CP(=O)([O-])[O-])CP(=O)([O-])[O-].[Pt+2] | > 100 | > 100 | > 100 | > 100 | > 100 | > 100 | > 100 | > 100 | > 100 | > 100 | – | – | > 100 | > 100 | > 100 | > 100 | > 100 | > 100 | > 100 | > 100
Cc1ccc(C2C3=C(N=c4s/c(=C/c5ccc(Br)cc5)c(=O)n42)c2ccc4ccccc4c2OCC3)cc1 (stereo not drawn) | – | > 100 | > 100 | > 100 | > 100 | > 100 | > 100 | > 100 | > 100 | > 100 | > 100 | > 100 | > 100 | 2.89 | 54.9 | > 100 | > 100 | > 100 | > 100 | –
C1=C(c2ccccc2)SC=C(c2ccccc2)S1 | 81.8 | > 100 | > 100 | > 100 | > 100 | > 100 | – | 77.9 | > 100 | – | – | 32.2 | – | – | – | – | – | – | – | –
N#CC(C(=N/NC(N)=S)/C(=N/NC(N)=S)C(C#N)c1ccc(Cl)cc1)c1ccc(Cl)cc1 (stereo not drawn) | > 100 | > 100 | > 100 | > 100 | > 100 | – | > 100 | > 100 | > 100 | – | – | – | – | – | – | – | – | – | – | –
